Experimental data published in PMC6934227, “GPR101 mediates the pro-resolving actions of RvD5n-3 DPA in arthritis and infections” (The Journal of Clinical Investigation, 2019).

Experiments:
Format in all cases: cell-based
GPR32 (DRV1) [1] = molecular target: T1, GPR32 (DRV1) (Homo sapiens, UniProt O75388); test: PathHunter β-arrestin recruitment in CHO cells (reference agonist)
T1 construct: CHO cells stably expressing human recombinant GPR32 coupled to a β-arrestin reporter system

GPR32 (DRV1) [2] = molecular target: T1, GPR32 (DRV1); test: PathHunter β-arrestin recruitment in CHO cells
GPR101 = molecular target: T2, GPR101 (Homo sapiens, UniProt Q96P66); test: tritiated radioligand saturation binding on GPR101-overexpressing CHO cells (plus homologous competition, IC50 […])
T2 construct: GPR101-overexpressing CHO cells
T2 sequence (Q96P66 1-508): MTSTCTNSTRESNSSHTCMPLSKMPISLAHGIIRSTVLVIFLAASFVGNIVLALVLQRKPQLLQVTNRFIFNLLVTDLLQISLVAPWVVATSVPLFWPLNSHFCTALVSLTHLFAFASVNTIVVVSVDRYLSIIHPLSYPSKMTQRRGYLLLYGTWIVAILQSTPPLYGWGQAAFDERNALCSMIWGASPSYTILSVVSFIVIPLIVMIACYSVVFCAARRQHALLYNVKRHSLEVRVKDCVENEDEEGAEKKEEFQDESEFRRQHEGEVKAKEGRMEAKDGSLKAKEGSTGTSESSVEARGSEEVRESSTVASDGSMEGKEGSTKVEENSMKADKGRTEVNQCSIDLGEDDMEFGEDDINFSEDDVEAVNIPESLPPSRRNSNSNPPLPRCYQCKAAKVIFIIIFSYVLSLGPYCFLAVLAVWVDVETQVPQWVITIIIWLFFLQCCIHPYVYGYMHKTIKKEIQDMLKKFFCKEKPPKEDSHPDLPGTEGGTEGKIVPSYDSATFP
Description: These experiments yielded a calculated KD

T1 sequence (O75388 whole entry): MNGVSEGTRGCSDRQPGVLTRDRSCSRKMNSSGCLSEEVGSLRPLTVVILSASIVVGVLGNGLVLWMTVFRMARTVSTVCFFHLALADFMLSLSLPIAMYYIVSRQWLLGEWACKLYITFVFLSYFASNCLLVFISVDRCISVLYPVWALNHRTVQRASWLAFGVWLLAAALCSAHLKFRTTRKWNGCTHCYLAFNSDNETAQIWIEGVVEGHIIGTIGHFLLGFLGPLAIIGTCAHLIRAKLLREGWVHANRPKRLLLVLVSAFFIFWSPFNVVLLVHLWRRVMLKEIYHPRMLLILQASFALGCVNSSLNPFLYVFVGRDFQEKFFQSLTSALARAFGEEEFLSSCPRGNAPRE

EC50 (GPR32 (DRV1) [1]) [nM] | EC50 (GPR32 (DRV1) [2]) [nM] | Kd (GPR101) [nM] | Structure (SMILES)
~0.0015 |  |  | CC/C=C\C[C@H](O)/C=C/C=C\C=C\C=C\[C@@H](O)[C@@H](O)C/C=C\CCC(=O)O [RvD1, 7S,8R,17S-trihydroxy-4Z,9E,11E,13Z,15E,19Z-docosahexaenoic acid]
 | ~0.014 | ~6.9 | CC/C=C\C[C@H](O)/C=C/C=C\C/C=C\C=C\[C@@H](O)CCCCCC(=O)O [RvD5n-3 DPA, 7S,17S-dihydroxy-8E,10Z,13Z,15E,19Z-docosapentaenoic acid]
